Test results from US20030176351A1, “Peptides and peptide analogues designed from a diabetes-associated autoantigen, and methods for their use in the treatment and prevention of diabetes” (priority 1999, published 2003).
pIC50: −log10 of the molar value. Where two headings read alike, the source gives them in different places. One block for each molecule: values may come before it.

Experiments:
[1] = test system: T cells from Patient #6211; assay: γIFN response of serially expanded T cells from Patient #6211 restimulated with GAD65 peptides and autologous APC; type: cell-based, human; conditions: T cells from Patient #6211 expanded in serial culture, autologous APC
Protocol: 10^5 thawed and irradiated DRB1*0404, DRB1*0405, or control (non-DR4) peripheral blood lymphocytes (PBL) in a volume of 100 μl were added to wells of 96 V-bottom plates containing peptide or medium and allowed to incubate for 2-3 hours at which time 4×10^4 T cells were added for a total volume of 200 μl-250 μl. At 20-24 hours of coculture, supernatants were harvested for cytokine determination and the wells replenished with fresh medium. At 48 hours, wells were radiolabeled with 1 μCi H^3-thymidine and cultured for an additional 18 hr. The plates were harvested on a TomTec Manual Mach III harvester and incorporated thymidine (as cpm) was determined by liquid spectroscopy on a Wallac Microbeta LSC.
Traditional sandwich ELISA were performed to test the supernatants for human γIFN, using matched antibody sets obtained from Endogen. The plates were read at 405 nm on a Microplate reader (Bio-Tek). The concentration of cytokine was estimated from standard curves using linear regression.
T cells from Patient #6211 were expanded in serial culture by restimulation with GAD65 peptides incubated with autologous APC. Specific T cell responses were present for both peptides 553-572 (53 pg/ml γIFN) and 555-567 (51 pg/ml γIFN), but not peptide 569-585 (5 pg/ml γIFN), localizing the minimal epitope to the 555-567 region. T cell clones were derived by expansion of this culture; proliferation, and cytokine response profiles for CD4^+ T cell clones BRI.4-10 and BRI.4-11 are shown in FIGS. 1A and 1B.

T cell clone BRI.4-10 = assay: prepulse antagonism assay, response to GAD65 555-567, clone BRI.4-10; type: cell-based, human
T cell clone BRI.4-11 = assay: prepulse antagonism assay, response to GAD65 555-567, clone BRI.4-11; type: cell-based, human
DR4 molecules = DR4 molecules (Homo sapiens, UniProt P01903+P01911, A100K/A169T/F76Y/I96L/K127E/L162R/M171V/N62H/P40V/Q125Y/R42H/S133A/S149N/S66Y/V115G/V209L/W38E); assay: standard DR4-peptide fluorescent binding assay
DR4 = conditions: Wicker et al, 1996; cited from earlier work

Molecule: 569-585: GAD65 peptide of residues 569-585 (QDIDFLIEEIERLGQDL; UniProt Q05329 569-585, looked up, fragment)
γIFN, specific T cell response [1]: 5 pg/mL

pIC50 (DR4 molecules): 6.40
Molecule: CSCC[C@H](NC(=O)[C@H](CCCNC(=N)N)NC(=O)[C@H](Cc1ccccc1)NC(=O)[C@H](Cc1ccccc1)NC(=O)[C@@H](N)CC(N)=O)C(=O)N[C@H](C(=O)N[C@@H](CCSC)C(=O)N[C@@H](CO)C(=O)N[C@@H](CC(N)=O)C(=O)N1CCC[C@H]1C(=O)N[C@@H](C)C(=O)N[C@@H](C)C(=O)N[C@H](C(=O)O)[C@@H](C)O)C(C)C [561 M]
reduction of T cell proliferative response (T cell clone BRI.4-10; clone BRI.4-10, APC pre-pulsed with agonist peptide 555-567): 80%
antagonism of γIFN cytokine response (in words) (T cell clone BRI.4-10; clone BRI.4-10, APC pre-pulsed with agonist peptide 555-567, FIG. 2B): similarly antagonized
antagonism of T cell responses (proliferation and γIFN, FIGS. 2C and 2D) (T cell clone BRI.4-11; clone BRI.4-11, APC pre-pulsed with agonist peptide 555-567): more than 90%

Molecule: CSCC[C@H](NC(=O)[C@H](CCCNC(=N)N)NC(=O)[C@H](Cc1ccccc1)NC(=O)[C@H](Cc1ccccc1)NC(=O)[C@@H](N)CC(N)=O)C(=O)N[C@H](C(=O)N[C@@H](CC(C)C)C(=O)N[C@@H](CO)C(=O)N[C@@H](CC(N)=O)C(=O)N1CCC[C@H]1C(=O)N[C@@H](C)C(=O)N[C@@H](C)C(=O)N[C@H](C(=O)O)[C@@H](C)O)C(C)C [561 L]
antagonism of proliferative response (in words) (T cell clone BRI.4-11; clone BRI.4-11, highest concentration tested, APC pre-pulsed with agonist peptide): partially antagonized

Molecule: VNFFRMVISNPAATHQD [GAD 554-570]
pIC50 (DR4 molecules; read-out: peptide binding: concentration of peptide giving 50% inhibition of a standard DR4-peptide fluorescent binding assay): 6.22

Molecule: 553-572: GAD65 peptide of residues 553-572 (KVNFFRMVISNPAATHQDID; UniProt Q05329 553-572, looked up, fragment)
γIFN, specific T cell response [1]: 53 pg/mL

Molecule: 554-566: GAD65 554-566 sequence, DR4-binding peptide of Wicker et al (VNFFRMVISNPAA; UniProt Q05329 554-566, looked up, fragment)
DR4 binding avidity among GAD65 peptides (DR4): most avid binding peptide identified

Molecule: CC[C@H](C)[C@H](NC(=O)[C@@H](NC(=O)[C@H](CCSC)NC(=O)[C@H](CCCNC(=N)N)NC(=O)[C@H](Cc1ccccc1)NC(=O)[C@H](Cc1ccccc1)NC(=O)[C@@H](N)CC(N)=O)C(C)C)C(=O)N[C@@H](CO)C(=O)N[C@@H](CC(N)=O)C(=O)N1CCC[C@H]1C(=O)N[C@@H](C)C(=O)N[C@@H](C)C(=O)N[C@H](C(=O)O)[C@@H](C)O [555-567]
γIFN, specific T cell response [1]: 51 pg/mL
